According to US8637679B2, “Process for the isolation of organic compounds useful for the treatment of cancer” (Council of Scientific and Industrial Research, priority 2011, dated 2014):

Columns and labels:
A172 = test: MTT cell viability assay, A172; format: cell-based, human; settings: Homo sapiens, A 172; A172, 48 hrs
Method: (§1) Human cervical cancer cell lines (HeLa, ME-180 and SiHa), brain tumor cell lines (U87MG, U373MG, U87MG EGFRvIII, T98G, A172 and LN229), lymphoid leukemia (MOLT-3, MOLT-4, REH and CEMC-7), myloid leukemia (K562), pancreatic cancer (MIAPaCa-2, AsPC-1, Panc-1 and Panc 10.05), lung cancer (A549) and colon cancer (HCT116 and SW480) cell lines from American Type Culture Collection, Manassas, Va., USA were grown in IMDM or RPMI (cell specific) Medium supplemented with 10% fetal bovine serum and 1% antibiotic-antimycotic. Cells were cultured in 37° C. in an atmosphere of 5% CO2.
(§2) Viability of cancer cell lines after treatment as at the indicated times was determined by MTT assay. Briefly, 10,000 cells were plated in triplicate in 96 well plates and incubated for 24 and 48 hours in complete media in presence of varying dose of mahanine (0-50 μM). 100 ug MTT was added in each well. Incubate the plate for 1-4 hours at 37° C. and humidified 5% CO2 atmosphere. Absorbance was recorded at 550 nm with 96 well plate readers.

[1] = test system: endoplasmic reticulum (ER) stress in MIAPaCa-2 cells; test: ER-Tracker Blue-White DPX confocal microscopy; format: cell-based, human; settings: MIAPaCa-2, 18 hrs, 10 μM and 20 μM mahanine
Method: MIAPaCa-2 cells were seeded in 8 chambered polystyrene culture slide [BD Falcon, USA] at […] cells per well in RPMI-1640 medium supplemented with 10% FBS. After 24 hrs of seeding, cells were exposed to different concentration of mahanine along with vehicle control. Cells were washed with 1× Hanks Balanced Salt Solution (HBSS) after 18 hrs of incubation and processed for ER staining. Pre-warmed ER-Tracker Blue White DPX (Molecular Probes) was added to the cells at 500 nM working concentration and incubated for 30 mins at 37° C. at 5% CO2 incubator. The loading solution was removed and cells were then washed again in HBSS and samples were analyzed using confocal laser scanning microscope (NICON A1-R, NICON, Japan). Images were recorded using 60×/1.40 oil plan Apo-N objectives at calibrated magnification.

Vero = test: MTT cell viability assay, Vero normal cells; format: cell-based, African monkey
HeLa = test: MTT cell viability assay, HeLa; format: cell-based, human
Method: as §1, §2

Molt-3 = test: MTT cell viability assay, Molt-3; format: cell-based, human; settings: Homo sapiens; Molt-3, 48 hrs
Method: as §1, §2

SiHa = test: MTT cell viability assay, SiHa; format: cell-based; settings: Homo sapiens, 48 hr
Method: as §1, §2

[2] = Tissue toxicity in K562 xenograft bearing nude mice; format: in vivo
Hsp90β = Hsp90β (Homo sapiens, UniProt P08238); test: γ-ATP sepharose binding assay, Hsp90β; settings: mahanine at 50 and 100 μM
Sequence of Hsp90β (P08238 whole entry): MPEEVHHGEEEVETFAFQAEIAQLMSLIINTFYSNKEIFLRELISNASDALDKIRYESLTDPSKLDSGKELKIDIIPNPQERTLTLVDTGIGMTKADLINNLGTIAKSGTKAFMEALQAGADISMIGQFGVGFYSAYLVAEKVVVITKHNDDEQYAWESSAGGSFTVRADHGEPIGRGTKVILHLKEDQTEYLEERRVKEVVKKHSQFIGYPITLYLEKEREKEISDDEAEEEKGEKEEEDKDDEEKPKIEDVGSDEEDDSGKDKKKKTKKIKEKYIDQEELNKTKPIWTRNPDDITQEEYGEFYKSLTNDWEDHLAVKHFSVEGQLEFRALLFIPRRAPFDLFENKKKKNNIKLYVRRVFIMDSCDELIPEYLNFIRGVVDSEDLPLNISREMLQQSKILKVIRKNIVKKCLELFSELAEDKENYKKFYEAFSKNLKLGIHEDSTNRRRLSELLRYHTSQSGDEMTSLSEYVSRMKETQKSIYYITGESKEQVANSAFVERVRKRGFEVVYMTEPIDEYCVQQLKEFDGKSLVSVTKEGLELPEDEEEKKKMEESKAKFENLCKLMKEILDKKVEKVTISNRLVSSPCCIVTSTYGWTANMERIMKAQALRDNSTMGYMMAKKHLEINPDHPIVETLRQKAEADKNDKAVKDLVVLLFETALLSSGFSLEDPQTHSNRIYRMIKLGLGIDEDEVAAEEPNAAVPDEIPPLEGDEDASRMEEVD
Method: (§3) 5 μg of purified Hsp90α and Hsp90β were pre-incubated separately on ice with 200 μL incubation buffer (10 mM Tris-Hcl, 50 mM KCl, 5 mM MgCl2, 2 mM DTT, 20 mM Na2MoO4, 0.01% NP40, pH 7.5) containing mahanine or 17-AAG and incubated for 30 mins on ice. After the incubation, 25 μL pre-equilibrated γ-phosphate ATP sepharose added and again incubated at 37° C. with frequent agitation.
(§4) Sepharose subsequently washed and analyzed by SDS-PAGE. Then the blot was probed with anti Hsp90 antibody and developed by ECL.

[3] = test system: Hsp90 client proteins (Akt); test: Western blot of Hsp90 client proteins; format: cell-based, human; settings: cervical and pancreatic cancer cell lines, 24 hrs
Method: Different human cancer cells (1×10^6 cells) were incubated with complete medium alone or with different dose of Mahanine (10-20 μM) as indicated. Cells were detached using trypsin-EDTA solution. They were collected by centrifugation at 1500 g for 10 mins and lysed by sonication. Aliquots containing 60 μg total cellular protein were separated by 10% SDS-PAGE and transferred to nitrocellulose membrane (MILIPORE, Bedford, Mass., USA). Membrane was blocked with blocking buffer for 1 hour at room temperature and probed with desired primary antibody Hsp90, Hsp70, Hsp40, p23, HOP, Cdc37, B-Raf, Stat-3, Bcl-xl, Akt, PARP, β-actin (Cell signaling technology, USA) and caspase-3 (Santa Cruz, USA), caspase9, cytochrome c (cell signaling technology, USA) for overnight at 4° C. followed by HRP conjugated secondary antibody and detected by ECL. For the detection of association of the Hsp90-Cdc37, Hsp90-p23 and Hsp90-HOP, total cell lysate (400 μg) was treated with anti-Hsp-90 antibody (1:100 dilutions) and incubated overnight at 4° C. The chaperonic complex was resolved by SDS-PAGE (10%), transferred and probed separately with anti-Cdc37, anti-HOP, anti-p23 and anti-Hsp-90 antibodies. In the few immunoprecipitation experiments anti-Cdc37 used as precipitating antibody and Hsp90 was used as detection antibody. […]

Hsp90α = Hsp90α (Homo sapiens, UniProt P07900); test: γ-ATP sepharose binding assay, Hsp90α; settings: mahanine at 50 and 100 μM
Method: as §3, §4

LN229 = test: MTT cell viability assay, LN229; format: cell-based, human; settings: Homo sapiens, LN-229; LN229, 48 hrs
Method: as §1, §2

CEM C7 = test: MTT cell viability assay, CEM C7; format: cell-based, human; settings: Homo sapiens; CEM C7, 48 hrs
Method: as §1, §2

Molt-4 = test: MTT cell viability assay, Molt-4; format: cell-based, human; settings: Homo sapiens; Molt-4, 48 hrs
Method: as §1, §2

A549 = test: MTT cell viability assay, A549; format: cell-based, human; settings: Homo sapiens; A549, 48 hrs
Method: as §1, §2

Storage stability = format: physicochemical
[4] = test system: orthotopic pancreatic tumour; test: Orthotopic pancreatic tumour model; format: in vivo; settings: athymic nude mice
U373MG = test: MTT cell viability assay, U373MG; format: cell-based, human; settings: Homo sapiens, U373 MG, 48 hrs
Method: as §1, §2

MIAPaCa-2 = test: In vitro colony formation on matrigel; format: cell-based, human

CC(C)=CCCC1(C)C=Cc2c(c(C)cc3c2[nH]c2cc(O)ccc23)O1 (centres unmarked) [Mahanine, mahanine]
IC50 (A172): 11.6 ± 1 µM
ER-Tracker staining (ER stress) [1]: significantly increased blue staining
IC50 (Vero; Primates, Vero normal cell line, 48 hrs): > 100 µM
sensitivity of Vero cells (Vero; proliferating normal cells, in vitro): less sensitive
IC50 (HeLa; 48 hrs): 13.2 ± 1.1 µM
IC50 (HeLa; Homo sapiens, 48 h): 10.9 µM
IC50 (Molt-3): 10.6 ± 0.3 µM
IC50 (SiHa): 14.5 µM
toxicity towards nonspecific tissues (lung, liver, spleen) [2]: no toxic effect
effect on ATP binding to purified Hsp90 (Hsp90β): could not reduce
dose enough to start significant downregulation of Akt level [3]: 15 µM
effect on ATP binding to purified Hsp90 (Hsp90α): could not reduce
IC50 (LN229): 13.7 ± 0.3 µM
IC50 (CEM C7): 10.2 ± 0.1 µM
IC50 (Molt-4): 10.7 ± 0.6 µM
IC50 (A549): 12.8 ± 1.1 µM
stable storage time (Storage stability; dissolved in ethanol, −20° C.): > 6 months
stability at room temperature (Storage stability; purified compound): stable in room temperature
orthotopic pancreatic tumour growth [4]: tumour growth inhibition
IC50 (U373MG): 16.8 ± 0.6 µM
colony formation (MIAPaCa-2; 15 μM, within 24 hrs): absolutely inhibited
colony formation (MIAPaCa-2; 20 μM, after 72 hrs): could not colonize
inhibition at 10 µM (MIAPaCa-2; Homo sapiens, MIA PaCa-2, 10 μM, within 24 hrs): ~20%
